In PMC10304387, “In Vitro and In Silico Evaluation of Anticholinesterase and Antidiabetic Effects of Furanolabdanes and Other Constituents from Graptophyllum pictum (Linn.) Griffith” (Molecules, 2023):
In brackets after ≈: the same amount, converted by molar mass. Like-named read-outs stand apart in the source and are kept apart here.

What was measured:
α-amylase = biological target: T1, α-amylase (Sus scrofa, UniProt P00690); assay: α-amylase inhibition (starch–iodine method); conditions: for inhibition at 100 µg/mL: read-out: percentage inhibition of α-amylase
T1 sequence (P00690 16-511): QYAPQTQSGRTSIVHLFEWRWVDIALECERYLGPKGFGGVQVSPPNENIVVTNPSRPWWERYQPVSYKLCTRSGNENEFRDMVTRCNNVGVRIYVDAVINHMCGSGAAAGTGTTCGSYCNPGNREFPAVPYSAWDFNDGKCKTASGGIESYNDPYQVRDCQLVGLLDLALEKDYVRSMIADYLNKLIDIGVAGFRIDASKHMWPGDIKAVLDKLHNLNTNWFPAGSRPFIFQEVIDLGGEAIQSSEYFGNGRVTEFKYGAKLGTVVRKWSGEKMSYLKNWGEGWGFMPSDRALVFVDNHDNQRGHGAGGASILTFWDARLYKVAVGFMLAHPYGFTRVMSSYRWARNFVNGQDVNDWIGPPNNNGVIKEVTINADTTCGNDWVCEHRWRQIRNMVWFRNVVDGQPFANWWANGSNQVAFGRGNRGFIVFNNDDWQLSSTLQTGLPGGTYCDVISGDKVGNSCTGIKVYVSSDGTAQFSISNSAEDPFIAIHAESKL
Experimental: The inhibition of α-amylase was determined using starch–iodine method with few modifications [64, 65]. Next, 50 µL of α-amylase from porcine pancreas in pH 6.9 phosphate buffer prepared with 6 mM NaCl and 25 µL of sample solutions was mixed in a 96-well microplate. The mixture was pre-incubated for 10 min at 37 °C. Next, 50 µL of starch solution (0.05%) was added and incubated for 10 min at 37 °C. Following incubation, the reaction was completed by adding HCl (0.1 M, 25 µL) and Lugol (100 µL) solutions, and the absorbance was recorded at 630 nm using a Multiskan Go microplate reader spectrophotometer (Thermo Fischer Scientific, Waltham, MA, USA).

α-glucosidase = α-glucosidase inhibitory activity (PNPG substrate); set-up: IC50 ± SEM (α-glucosidase): unit not given beside the values; conditions: for percentage inhibition of α-glucosidase: at 100 µg/mL; for IC50 ± SEM (α-glucosidase): Table 2 prints no unit, repeats Table 1 values; for IC50 α-Glucosidase: mean ± SEM of three measurements, highest test concentration 100 µg/mL
[1] = biological target: butyrylcholinesterase (BChE) (Equus caballus, UniProt P81908); assay: biochemical; conditions: for inhibition at 100 µg/mL: read-out: percentage inhibition of BChE
Experimental: The anticholinesterase activity of the extracts and compounds was determined spectrophotometrically via the acetylcholinesterase (AChE) and butyrylcholinesterase (BChE) enzyme inhibition assay method described by Ellman with minor modifications [62, 63]. AChE and BChE from electric eel and horse serum, respectively, were used. The substrates of the reactions were acetylthiocholine iodide and butyrylthiocholine chloride. The activity of the cholinesterase was monitored using DTNB (5,5′-Dithio-bis(2-nitrobenzoic) acid). […] A Multiskan Go microplate reader spectrophotometer (Thermo Fischer Scientific, Waltham, MA, USA) was used to read optical densities.

[2] = biological target: T2, acetylcholinesterase (AChE) (Electrophorus electricus, UniProt O42275); conditions: read-out: IC50 ± SEM (Acetylcholinesterase); Table 2 prints no unit; repeats Table 1 values
[3] = biological target: T2, acetylcholinesterase (AChE); assay: biochemical; conditions: for inhibition at 100 µg/mL: read-out: percentage inhibition of AChE, at 100 µg/mL

Chain of butyrylcholinesterase (BChE) (P81908 whole entry): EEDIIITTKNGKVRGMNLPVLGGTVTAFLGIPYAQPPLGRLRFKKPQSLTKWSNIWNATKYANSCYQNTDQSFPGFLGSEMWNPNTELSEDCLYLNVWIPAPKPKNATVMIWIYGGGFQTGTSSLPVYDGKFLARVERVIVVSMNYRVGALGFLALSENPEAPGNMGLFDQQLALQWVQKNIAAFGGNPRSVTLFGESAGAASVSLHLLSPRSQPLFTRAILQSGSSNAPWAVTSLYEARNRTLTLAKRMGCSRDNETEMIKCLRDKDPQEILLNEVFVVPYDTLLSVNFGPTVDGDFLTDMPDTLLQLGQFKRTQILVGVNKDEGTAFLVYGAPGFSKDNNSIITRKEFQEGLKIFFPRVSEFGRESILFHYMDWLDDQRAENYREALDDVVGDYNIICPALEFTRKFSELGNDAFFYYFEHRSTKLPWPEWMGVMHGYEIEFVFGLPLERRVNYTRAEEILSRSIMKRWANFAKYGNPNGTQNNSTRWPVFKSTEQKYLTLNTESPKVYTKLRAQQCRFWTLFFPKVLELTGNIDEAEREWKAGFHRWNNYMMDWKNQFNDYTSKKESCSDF
T2 sequence (O42275 24-633): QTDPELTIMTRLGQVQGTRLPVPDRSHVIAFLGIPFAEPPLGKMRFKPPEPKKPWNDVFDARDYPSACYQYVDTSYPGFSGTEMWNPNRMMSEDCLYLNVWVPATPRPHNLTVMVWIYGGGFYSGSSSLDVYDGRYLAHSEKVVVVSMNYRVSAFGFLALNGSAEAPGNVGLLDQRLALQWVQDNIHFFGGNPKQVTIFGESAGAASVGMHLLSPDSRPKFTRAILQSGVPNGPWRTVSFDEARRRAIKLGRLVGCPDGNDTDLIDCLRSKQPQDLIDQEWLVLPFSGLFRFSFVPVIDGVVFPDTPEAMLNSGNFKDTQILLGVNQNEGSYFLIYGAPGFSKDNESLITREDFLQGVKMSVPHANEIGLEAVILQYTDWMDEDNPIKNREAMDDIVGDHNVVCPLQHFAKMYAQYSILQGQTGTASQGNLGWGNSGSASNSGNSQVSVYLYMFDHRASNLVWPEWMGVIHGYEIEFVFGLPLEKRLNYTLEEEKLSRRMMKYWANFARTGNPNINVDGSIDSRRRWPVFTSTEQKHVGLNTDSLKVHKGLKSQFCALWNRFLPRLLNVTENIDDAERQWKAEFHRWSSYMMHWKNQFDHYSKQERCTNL

Row | Compound | inhibition at 100 µg/mL (α-amylase) [%] | percentage inhibition of α-glucosidase (α-glucosidase) [%] | inhibition at 100 µg/mL [1] [%] | IC50 [2] [µM] | IC50 [3] [µM] | inhibition at 100 µg/mL [3] [%] | IC50 (α-amylase) [µM] | IC50 [1] [µM] | IC50 ± SEM (α-glucosidase) (α-glucosidase) | IC50 α-Glucosidase (α-glucosidase) [µg/mL]
1 | C[C@H]1O[C@H](O[C@H]2[C@H](O)[C@@H](O)[C@@H](O[C@H]3[C@H](O)[C@@H](O)C(O)O[C@@H]3CO)O[C@@H]2CO)[C@H](O)[C@@H](O)[C@@H]1N[C@H]1C=C(CO)[C@@H](O)[C@H](O)[C@H]1O (stereo partly drawn) [Acarbose, acarbose, reference compound] | 75.84 ± 0.52 | 51.35 ± 0.65 |  |  |  |  |  |  |  | 
2 | COc1ccc2c3c1O[C@H]1C[C@@H](O)C=C[C@@]31CCN(C)C2 [Galantamine, galantamine, reference compound] |  |  | 73.85 ± 0.3 |  |  |  |  |  |  | 
3 | CC1=C[C@H]2OC(=O)[C@@]3(C)CCC[C@@](C)([C@@H]23)[C@H]1CC(=O)c1ccoc1 [Hypopurin A] | 65.8 ± 0.84 | 50.13 ± 0.81 | 64.8 ± 0.93 | > 304 | > 304 | 40.2 ± 0.75 | 185 | 177 | 99.25 ± 0.96 | 99.25 ± 0.96 (≈ 302 µM)
4 | CC1=C[C@H]2OC3OC(=O)[C@@]4(C)CCC[C@@]3([C@@H]24)[C@H]1CC(=O)c1ccoc1 [Hypopurin B] | 56.68 ± 0.24 | 51.95 ± 0.63 | 61.8 ± 1.15 | > 292 | > 292 | 24.8 ± 0.33 | 203 | 196 | 71.41 ± 0.98 | 71.41 ± 0.98 (≈ 209 µM)
5 | CC1=CC2OC3OCC4(CCCC3(C)C24)C1CC(=O)c1ccoc1 (stereo not drawn) [Hypopurin E] | 53.9 ± 0.52 | 54.79 ± 0.85 | 52.8 ± 1.07 | > 304 | > 304 | 20.4 ± 0.56 | 225 | 265 | 76.33 ± 1.10 | 76.33 ± 1.10 (≈ 232 µM)
6 | C=C(C)[C@@H]1CC[C@]2(C)CC[C@]3(C)[C@H](CC[C@@H]4[C@@]5(C)CC[C@H](O)C(C)(C)[C@@H]5CC[C@]43C)[C@@H]12 [Lupeol] |  | 60.91 ± 0.76 |  |  | > 234 |  | > 234 | > 234 |  | 69.75 ± 0.42 (≈ 163 µM)
7 | CC[C@H](/C=C/[C@@H](C)[C@H]1CC[C@H]2[C@@H]3CC=C4C[C@@H](O[C@@H]5O[C@H](CO)[C@@H](O)[C@H](O)[C@H]5O)CC[C@]4(C)[C@H]3CC[C@]12C)C(C)C [Stigmasterol glucoside, Stigmasterol 3-O-β-D-glucopyranoside] |  |  |  |  | > 174 | 25.2 ± 0.94 | > 174 | > 174 |  | >100
8 | CC[C@H](CC[C@@H](C)[C@H]1CC[C@H]2[C@@H]3CC=C4C[C@@H](O[C@@H]5O[C@H](CO)[C@@H](O)[C@H](O)[C@H]5O)CC[C@]4(C)[C@H]3CC[C@]12C)C(C)C [β-Sitosterol glucoside, 3β-O-D-glucopyranosyl-β-sitosterol] |  |  |  |  | > 173 | 30.45 ± 0.23 | > 173 | > 173 |  | >100
